Laboratory results: patent US20240261315A1 (Omikron Italia S.r.l., priority 2021, published 2024)

Legend:
[1] = system: db/db mice; assay: SD-OCT measurement of retinal layer thickness in db/db mice; format: in vivo; conditions: 15 days oral treatment; for GC/IPL layer thickness / INL layer thickness / RNFL layer thickness: SD-OCT; for alteration in the thickness of retinal layers: vs placebo or healthy control
From the text: (§1) The db/db mice have a mutation in the leptin receptor gene and they are an animal model of retinal neurodegeneration. Such model is useful to mime the pathophysiological events which are found in neurodegenerative pathologies such as glaucoma.
(§2) 20 db/db […] (BKS.Cg-+Leprdb/+Leprdb/OlaHsd, males, 10 weeks) were randomized in 5 groups and treated for 15 days by oral route with oral solutions based on: • 1. Citicoline 0.5% (Cit.) in 10% lactose solution administered with nasogastric tube (SNG); • 2. […] 10% lactose solution (Placebo) administered with SNG; • 5. Healthy, non-diabetic control (Control).
On day 15, 1 hour after the administration of the several treatments, the mice were subjected to (i) very high-resolution Spectral Domain Optical Coherence Tomography (SD-OCT), to obtain, in vivo, detailed images relating to the morphology of the different retinal layers. The mice were subjected to anaesthesia induced by single intraperitoneal injection of 80 mg/ml Ketamine, xylazine 12 mg/ml (Sigma-Adrich). Subsequently, to induce mydriasis, one single drop of 0.5% tropicamide was instilled and then each mouse positioned in front of the objective of OCT.
For all animals only the right eye was examined and the average obtained from three consecutive retinal scanning for each eye was considered for each layer. The OCT images were acquired through bidimensional scanning (B-scan) combined to noise reduction software with ART (automatic real time) and with a visual field of 30 degrees focalized on the head of the optic nerve. After OCT examination the animals were sacrificed by cervical dislocation and the eyes immediately enucleated.

[2] = system: db/db mice; assay: Full field electroretinogram (ffERG) in db/db mice; format: in vivo; conditions: stimuli 10 and 40 cd s/m2, vs Placebo
From the text: as §1, §2
Through (ii) full field Electroretinogram (ffERG) the electrical activity and then the functionality of the retinal cells were evaluated. The recordings were measured by using ERG platform of Ganzfeld (Phoenix Research Laboratories, Pleasanton, CA, USA) and according to the recommendations of ISCEV (International Society for Clinical Electrophysiology of Vision).

[3] = system: glial fibrillary acidic protein GFAP; assay: Glial activation, GFAP immunohistochemistry score in db/db mice; format: in vivo
From the text: as §1
[…] Citicoline 0.5% (Cit.) in 10% lactose solution administered with nasogastric tube (SNG); • 2. […] 10% lactose solution (Placebo) administered with SNG; • 5. Healthy, non-diabetic control (Control).
Through immunohistochemical assays, neurodegeneration histological markers were researched (glial activation and apoptosis):
(iii) The glial activation was evaluated by means of confocal laser scanning microscopy by using antibodies directed to the glial fibrillary acidic protein GFAP (anti-GFAP of rabbit). To evaluate the level of glial activation a scoring system (from 1 to 5) was used based upon the extension of GFAP (glial fibrillary acidic protein) colouring.
The sections were fixed in methanol (−20° C.) for 2 minutes, followed by three washing with saline phosphate buffer PBS (5 minutes each one). The sections were treated with Tris Saline Buffer TBS-Triton X-100 (0.025%) and incubated in a 1% solution of bovine albumin serum BSA and 10% goat serum in PBS for 2 hours at room temperature. The sections were then incubated with anti-GFAP of rabbit overnight at 4° C. in humid atmosphere. After three washing in PBS, 5 minutes each one, the sections were incubated with the secondary antibody Alexa AF488 goat-anti-rabbit (dilution 1:200 prepared in blocking solution). The sections were washed in PBS, coloured with Hoestch and assembled with means Flourescence Mounting Medium with a cover glass. Once the mounting support has dried up, comparative digital images of the samples were recorded with a confocal laser scanning microscope Fluoview FV 1000 Olympus (Olympus, Shinjuku, Tokyo, Japan) by using identical brightness and contrast settings.

[4] = system: patients affected by open-angle glaucoma; assay: Clinical observation in open-angle glaucoma patients: intraocular pressure (Goldmann tonometry); format: in vivo, human; conditions: after 6 months of treatment, in addition to hypotensive therapy, 3 patients
Protocol: 12 randomized patients were included in 4 groups: • CIT. GROUP-3 patients treated with citicoline in oral solution 10 ml/die corresponding to 500 mg/die of citicoline, in addition to the hypotensive therapy; • NIC. […] The patients were treated and followed for 6 months. At baseline and after 6 months of treatment complete eye examination including visual acuity, control of the intraocular pressure (IOP) with Goldmann tonometry (GAT); visual field testing, electro-functional and morphological examination were performed.

[5] = system: retinal ganglion cells; assay: Clinical observation: electro-functional test, PERG; format: in vivo, human; conditions: after 6 months of treatment, in addition to hypotensive therapy, 3 patients
Protocol: (§3) 12 randomized patients were included in 4 groups: • CIT. GROUP-3 patients treated with citicoline in oral solution 10 ml/die corresponding to 500 mg/die of citicoline, in addition to the hypotensive therapy; • NIC. […] The patients were treated and followed for 6 months. At baseline and after 6 months of treatment complete eye examination including visual acuity, control of the intraocular pressure (IOP) with Goldmann tonometry (GAT); visual field testing, electro-functional and morphological examination were performed. Then (2) electro-functional test was performed: electroretinogram from PERG pattern and of the PEV visual evoked potentials to evaluate the bioelectric responses respectively of the retinal ganglion cells and of the visual cortex evoked from the visual stimuli. The patients were positioned in an acoustically insulated semi-dark room, in front of the display surrounded by a uniform field of luminance of 5 cd/m2. […] The signal to PERG and PEV was recorded by a small electrode of Ag/AgCl positioned respectively above the lower eyelid and on the scalp. […] The peak-peak widths were measured at PERG P50-N95 for each wave. […] During a recording session, simultaneous PERG and PEV were recorded at least twice (between two and six times) and the resulting waveforms were overlapped to verify the repeatability of results. […]

[6] = system: visual cortex; assay: Clinical observation: electro-functional test, PEV visual evoked potentials; format: in vivo, human; conditions: after 6 months of treatment, in addition to hypotensive therapy, 3 patients
Protocol: as §3

Compound | GC/IPL layer thickness [1] [μm] | INL layer thickness [1] [μm] | RNFL layer thickness [1] [μm] | alteration in the thickness of retinal layers [1] | reduction in the width of wave b at ERG [2] | GFAP score 1, share of mice [3] [%] | GFAP score 2, share of mice [3] [%] | GFAP score 3, share of mice [3] [%] | GFAP score 4, share of mice [3] [%] | GFAP score 5, share of mice [3] [%] | IOP [4] | PERG P50-N95 A [5] | PEV P100 IT [6]
C[N+](C)(C)CCOP(=O)([O-])OP(=O)(O)OC[C@H]1O[C@@H](n2ccc(N)nc2=O)C(O)C1O (some centres unmarked) [Citicoline, citidin-5′-difosfocholine] | 59.3 ± 4.8 | 20.9 ± 2.5 | 22.3 ± 1.3 | less reduction in the thickness of the layers | attenuated with respect to Placebo | 71 | 22 | 7 | 0 | 0 | 13.8 (±1.8) | 1.77 (±0.27) microV | 119.1 (±7.22) ms
NC(=O)c1cccnc1 [Nicotinamide] | 58.8 ± 5.2 | 21.1 ± 2.1 | 21.8 ± 2.4 | less reduction in the thickness of the layers | attenuated with respect to Placebo | 72 | 18 | 10 | 0 | 0 | 14.0 (±2.3)^ | 1.74 (±0.21) microV | 119.5 (±7.00) ms
